Test: Stability of daptomycin in a transient daptomycin-linker hydrogel conjugate versus free daptomycin
Type: physicochemical
Conditions: pH 7.4 and 37° C.; at day seven; UPLC peak area ratio at 215 nm
Description: The relative stability of the covalently bound daptomycin in a transient daptomycin-linker hydrogel conjugate towards hydrolytic and other degradation pathways in comparison to free daptomycin was investigated. […] The supernatant of the carrier sample was exchanged five times within a week and the daptomycin purity in these samples was analyzed by UPLC. In parallel, analytical samples of the free daptomycin control solution were also analyzed by UPLC at the same incubation times. The purity of daptomycin in the samples was calculated as the ratio of the peak area of the intact daptomycin peak at 215 nm relative to the area sum of all daptomycin-related peaks identified at 215 nm.

purity of the free daptomycin in the solution control sample: 72%
SMILES: CCCCCCCCCC(=O)N[C@@H](Cc1c[nH]c2ccccc12)C(=O)N[C@H](CC(N)=O)C(=O)N[C@@H](CC(=O)O)C(=O)N[C@@H]1C(=O)NCC(=O)N[C@@H](CCCN)C(=O)N[C@@H](CC(=O)O)C(=O)N[C@H](C)C(=O)N[C@@H](CC(=O)O)C(=O)NCC(=O)N[C@H](CO)C(=O)N[C@@H]([C@H](C)CC(=O)O)C(=O)N[C@@H](CC(=O)c2ccccc2N)C(=O)O[C@@H]1C [daptomycin]

Reference: patent US20210330807A1, “NOVEL HYDROGEL CONJUGATES” (priority 2018, published 2021)
